From patent US9708334B2, “Substituted 2,4,5,6-tetrahydropyrrolo[3,4-c]pyrazole and 4,5,6,7-tetrahydro-2H-pyrazolo[4,3-c]pyridine compounds as GlyT1 inhibitors” (DART NEUROSCIENCE (CAYMAN) LTD., priority 2014, dated 2017)

biological target: T1, GlyT1 (Homo sapiens, UniProt P48067); assay: Glycine Transporter 1 (GlyT1) uptake assay, scintillation proximity assay of [14C]-glycine uptake; format: cell-based; details: SPA, four parameter logistic fit, read-out: GlyT1 (pIC50) (converted)
T1 construct: expressed in transfected cells
T1 sequence (P48067 1-706): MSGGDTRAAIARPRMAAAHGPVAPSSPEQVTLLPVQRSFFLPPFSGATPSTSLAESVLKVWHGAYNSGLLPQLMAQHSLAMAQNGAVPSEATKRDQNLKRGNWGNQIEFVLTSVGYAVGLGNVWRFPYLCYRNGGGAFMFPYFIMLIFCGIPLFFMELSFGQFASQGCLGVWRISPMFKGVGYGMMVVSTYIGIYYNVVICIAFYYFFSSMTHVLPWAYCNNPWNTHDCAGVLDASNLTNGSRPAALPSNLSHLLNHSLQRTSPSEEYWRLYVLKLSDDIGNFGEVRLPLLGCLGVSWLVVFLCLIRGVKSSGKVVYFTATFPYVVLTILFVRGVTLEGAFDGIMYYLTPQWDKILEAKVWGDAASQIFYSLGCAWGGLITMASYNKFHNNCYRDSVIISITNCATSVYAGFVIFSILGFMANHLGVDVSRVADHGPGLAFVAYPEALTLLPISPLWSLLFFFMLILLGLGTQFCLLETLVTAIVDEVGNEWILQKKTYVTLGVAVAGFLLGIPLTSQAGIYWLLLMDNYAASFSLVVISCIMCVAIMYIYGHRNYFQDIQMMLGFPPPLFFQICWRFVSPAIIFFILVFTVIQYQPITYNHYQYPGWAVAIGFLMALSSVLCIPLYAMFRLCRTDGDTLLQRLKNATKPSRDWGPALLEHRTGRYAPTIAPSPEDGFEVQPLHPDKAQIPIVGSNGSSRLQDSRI
Method in brief: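 [14C]-glycine uptake read by scintillation proximity on a plate counter. IC50 from four-parameter logistic fit of dose-response data.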

Row | SMILES | IC50 [nM]
1 | C[C@H](Oc1ccc(C#N)cc1C(=O)N1Cc2cn(C3CCC(F)(F)CC3)nc2C1)C(F)(F)F [Example 472, 3-[2-(4 4-Difluorocyclohexyl)-2H 4H 5H 6H-pyrrolo[3,4-c]pyrazole-5-carbonyl]-4-{[(2S)-1 1 1-trifluoropropan-2-yl]oxy}benzonitrile] | 100 to 1000
2 | COc1c(C#N)ccc(OC(C)C(F)(F)F)c1C(=O)N1CCc2nn(-c3ccc(F)cc3)c(C)c2C1 (stereo not drawn) [Example 473, 3-[2-(4-Fluorophenyl)-3-methyl-2H 4H 5H 6H 7H-pyrazolo[4,3-c]pyridine-5-carbonyl]-2-methoxy-4-[(1 1 1-trifluoropropan-2-yl)oxy]benzonitrile] | > 10000
3 | COc1c(C#N)ccc(OC(C)C(F)(F)F)c1C(=O)N1Cc2cnn(-c3ccc(F)cc3)c2C(C)(C)C1 (stereo not drawn) [Example 474, 3-[1-(4-Fluorophenyl)-7 7-dimethyl-1H 4H 5H 6H 7H-pyrazolo[4,3-c]pyridine-5-carbonyl]-2-methoxy-4-[(1 1 1-trifluoropropan-2-yl)oxy]benzonitrile] | 1000 to 10000
4 | COc1c(C#N)ccc(OCC2(C)CC2)c1C(=O)N1CCc2nn(-c3ccc(F)cc3)cc2C1 [Example 475, 3-[2-(4-Fluorophenyl)-2H 4H 5H 6H 7H-pyrazolo[4,3-c]pyridine-5-carbonyl]-2-methoxy-4-[(1-methylcyclopropyl)methoxy]benzonitrile] | > 10000
5 | COc1c(C#N)ccc(OCC2(C(F)(F)F)CC2)c1C(=O)N1CCc2nn(-c3ccc(F)cc3)cc2C1 [Example 476, 3-[2-(4-Fluorophenyl)-2H 4H 5H 6H 7H-pyrazolo[4,3-c]pyridine-5-carbonyl]-2-methoxy-4-{[1-(trifluoromethyl)cyclopropyl]methoxy}benzonitrile] | 1000 to 10000
6 | CC(C)(Oc1ccc(S(C)(=O)=O)cc1C(=O)N1Cc2cn(-c3ccc(F)cc3)nc2C1)C(F)(F)F [Example 477, 2-(4-Fluorophenyl)-5-{5-methanesulfonyl-2-[(1 1 1-trifluoro-2-methylpropan-2-yl)oxy]benzoyl}-2H 4H 5H 6H-pyrrolo[3,4-c]pyrazole] | > 10000
7 | CNC(=O)c1ccc(OC(C)C(F)(F)F)c(C(=O)N2CCc3nn(-c4ccc(F)cc4)cc3C2)c1Cl (stereo not drawn) [Example 478, 2-Chloro-3-[2-(4-fluorophenyl)-2H 4H 5H 6H 7H-pyrazolo[4,3-c]pyridine-5-carbonyl]-N-methyl-4-[(1 1 1-trifluoropropan-2-yl)oxy]benzamide] | < 100
8 | COc1c(C(=O)N2CCC2)ccc(OC(C)C(F)(F)F)c1C(=O)N1CCc2nn(-c3ccc(F)cc3)cc2C1 (stereo not drawn) [Example 479, 1-{3-[2-(4-Fluorophenyl)-2H 4H 5H 6H 7H-pyrazolo[4,3-c]pyridine-5-carbonyl]-2-methoxy-4-[(1 1 1-trifluoropropan-2-yl)oxy]benzoyl}azetidine] | < 100
9 | CNC(=O)c1ccc(OC(C)C(F)(F)F)c(C(=O)N2CCc3nn(-c4ccc(F)cc4)cc3C2)c1OC (stereo not drawn) [Example 480, 3-[2-(4-Fluorophenyl)-2H 4H 5H 6H 7H-pyrazolo[4,3-c]pyridine-5-carbonyl]-2-methoxy-N-methyl-4-[(1 1 1-trifluoropropan-2-yl)oxy]benzamide] | 100 to 1000
10 | CC(Oc1ccc(C(=O)N2CCC2)cc1C(=O)N1CCc2nn(-c3ccc(F)cc3)cc2C1)C(F)(F)F (stereo not drawn) [Example 481, 1-{3-[2-(4-Fluorophenyl)-2H 4H 5H 6H 7H-pyrazolo[4,3-c]pyridine-5-carbonyl]-4-[(1 1 1-trifluoropropan-2-yl)oxy]benzoyl}azetidine] | > 10000
11 | CNC(=O)c1ccc(OC(C)C(F)(F)F)c(C(=O)N2CCc3nn(-c4ccc(F)cc4)cc3C2)c1 (stereo not drawn) [Example 482, 3-[2-(4-Fluorophenyl)-2H 4H 5H 6H 7H-pyrazolo[4,3-c]pyridine-5-carbonyl]-N-methyl-4-[(1 1 1-trifluoropropan-2-yl)oxy]benzamide] | 100 to 1000
12 | COc1c(C(N)=O)ccc(OC(C)C(F)(F)F)c1C(=O)N1CCc2nn(-c3ccc(F)cc3)cc2C1 (stereo not drawn) [Example 483, 3-[2-(4-Fluorophenyl)-2H 4H 5H 6H 7H-pyrazolo[4,3-c]pyridine-5-carbonyl]-2-methoxy-4-[(1 1 1-trifluoropropan-2-yl)oxy]benzamide] | 1000 to 10000
13 | CC(Oc1ccc(C(N)=O)c(Cl)c1C(=O)N1Cc2cn(-c3ccc(F)cc3)nc2C1)C(F)(F)F (stereo not drawn) [Example 484, 2-Chloro-3-[2-(4-fluorophenyl)-2H 4H 5H 6H-pyrrolo[3,4-c]pyrazole-5-carbonyl]-4-[(1 1 1-trifluoropropan-2-yl)oxy]benzamide] | < 100
14 | COc1c(C#N)ccc(C2CCCC2)c1C(=O)N1CCc2nn(-c3ccccc3)cc2C1 [Example 485] | < 100
15 | COc1c(C#N)ccc(C2CCCC2)c1C(=O)N1CCc2nn(-c3ccc(F)cc3)cc2C1 [Example 486, 4-Cyclopentyl-3-[2-(4-fluorophenyl)-2H 4H 5H 6H 7H-pyrazolo[4,3-c]pyridine-5-carbonyl]-2-methoxybenzonitrile] | < 100
16 | COc1c(C#N)ccc(C2(F)CCCC2)c1C(=O)N1CCc2nn(-c3ccccc3)cc2C1 [Example 490, 4-(1-Fluorocyclopentyl)-2-methoxy-3-{2-phenyl-2H 4H 5H 6H 7H-pyrazolo[4,3-c]pyridine-5-carbonyl}benzonitrile] | < 100
17 | COc1c(C#N)ccc(C2(F)CCCC2)c1C(=O)N1CCc2nn(-c3ccc(F)cc3)cc2C1 [Example 491, 4-(1-Fluorocyclopentyl)-3-[2-(4-fluorophenyl)-2H 4H 5H 6H 7H-pyrazolo[4,3-c]pyridine-5-carbonyl]-2-methoxybenzonitrile] | < 100

Further lines, results first:

Row | IC50 [nM] | SMILES
18 | 1000 to 10000 | COc1c(C#N)ccc(C2(F)COC2)c1C(=O)N1CCc2nn(-c3ccccc3)cc2C1 [Example 487]
19 | 100 to 1000 | COc1c(C#N)ccc(C2CCC2)c1C(=O)N1CCc2nn(-c3ccccc3)cc2C1 [Example 488, 4-Cyclobutyl-2-methoxy-3-{2-phenyl-2H 4H 5H 6H 7H-pyrazolo[4,3-c]pyridine-5-carbonyl}benzonitrile]
20 | 100 to 1000 | COc1c(C#N)ccc(C2(F)CCC2)c1C(=O)N1CCc2nn(-c3ccc(F)cc3)cc2C1 [Example 489, 4-(1-Fluorocyclobutyl)-3-[2-(4-fluorophenyl)-2H 4H 5H 6H 7H-pyrazolo[4,3-c]pyridine-5-carbonyl]-2-methoxybenzonitrile]
21 | 100 to 1000 | COc1c(C#N)ccc(C2(F)CCOCC2)c1C(=O)N1CCc2nn(-c3ccc(F)cc3)cc2C1 [Example 492]
22 | 1000 to 10000 | COc1c(C#N)ccc(C2(OC)CCC2)c1C(=O)N1CCc2nn(-c3ccc(F)cc3)cc2C1 [Example 493, 3-[2-(4-Fluorophenyl)-2H 4H 5H 6H 7H-pyrazolo[4,3-c]pyridine-5-carbonyl]-2-methoxy-4-(1-methoxycyclobutyl)benzonitrile]
23 | < 100 | COc1c(C#N)ccc(C2CCCC2)c1C(=O)N1Cc2cn(-c3ccc(F)cc3)nc2C1 [Example 494, 4-Cyclopentyl-3-[2-(4-fluorophenyl)-2H 4H 5H 6H-pyrrolo[3,4-c]pyrazole-5-carbonyl]-2-methoxybenzonitrile]
24 | < 100 | COc1c(C#N)ccc(C2CCCC2)c1C(=O)N1Cc2cn(-c3cncc(F)c3)nc2C1 [Example 495, 4-Cyclopentyl-3-[2-(5-fluoropyridin-3-yl)-2H 4H 5H 6H-pyrrolo[3,4-c]pyrazole-5-carbonyl]-2-methoxybenzonitrile]
25 | 100 to 1000 | CS(=O)(=O)c1ccc(N2CCC(F)(F)C2)c(C(=O)N2CCc3nn(-c4ccccc4)cc3C2)c1 [Example 496, 3 3-Difluoro-1-(4-methanesulfonyl-2-{2-phenyl-2H 4H 5H 6H 7H-pyrazolo[4,3-c]pyridine-5-carbonyl}phenyl)pyrrolidine]
26 | 100 to 1000 | CC(C)(C)COc1ccc(S(C)(=O)=O)cc1C(=O)N1CCc2nn(-c3ccccc3)cc2C1 [Example 497, 5-[2-(2 2-Dimethylpropoxy)-5-methanesulfonylbenzoyl]-2-phenyl-2H 4H 5H 6H 7H-pyrazolo[4,3-c]pyridine]
27 | 1000 to 10000 | CS(=O)(=O)c1ccc(N2CCCC2)c(C(=O)N2CCc3nn(-c4ccccc4)cc3C2)c1 [Example 498, 1-(4-Methanesulfonyl-2-{2-phenyl-2H 4H 5H 6H 7H-pyrazolo[4,3-c]pyridine-5-carbonyl}phenyl)pyrrolidine]
28 | > 10000 | CS(=O)(=O)c1ccc(N2CCC2)c(C(=O)N2CCc3nn(-c4ccccc4)cc3C2)c1 [Example 499, 1-(4-Methanesulfonyl-2-{2-phenyl-2H 4H 5H 6H 7H-pyrazolo[4,3-c]pyridine-5-carbonyl}phenyl)azetidine]
29 | 1000 to 10000 | CS(=O)(=O)c1ccc(OCC2CC2)c(C(=O)N2CCc3nn(-c4ccccc4)cc3C2)c1 [Example 500, 5-[2-(Cyclopropylmethoxy)-5-methanesulfonylbenzoyl]-2-phenyl-2H 4H 5H 6H 7H-pyrazolo[4,3-c]pyridine]
30 | 100 to 1000 | CC(Oc1ccc(C#N)c(Cl)c1C(=O)N1CCc2c(cnn2-c2ccc(F)cc2)C1)C(F)(F)F (stereo not drawn) [Example 501, 2-Chloro-3-[1-(4-fluorophenyl)-1H 4H 5H 6H 7H-pyrazolo[4,3-c]pyridine-5-carbonyl]-4-[(1 1 1-trifluoropropan-2-yl)oxy]benzonitrile]
